{"source": "ChEMBL document CHEMBL1773043", "about": "“Platensimycin and platencin congeners from Streptomyces platensis” (J Nat Prod, 2011)", "key": {"Streptococcus pneumoniae": {"tested_on": "Streptococcus pneumoniae", "assay": "Antibacterial activity against Streptococcus pneumoniae at 64 ug/ml after 20 hrs", "type": "functional, organism-based"}, "[1]": {"target": "T1, 3-oxoacyl-[acyl-carrier-protein] synthase 2 (Staphylococcus aureus, UniProt Q5TKS0)", "T1 sequence (Q5TKS0 whole entry)": "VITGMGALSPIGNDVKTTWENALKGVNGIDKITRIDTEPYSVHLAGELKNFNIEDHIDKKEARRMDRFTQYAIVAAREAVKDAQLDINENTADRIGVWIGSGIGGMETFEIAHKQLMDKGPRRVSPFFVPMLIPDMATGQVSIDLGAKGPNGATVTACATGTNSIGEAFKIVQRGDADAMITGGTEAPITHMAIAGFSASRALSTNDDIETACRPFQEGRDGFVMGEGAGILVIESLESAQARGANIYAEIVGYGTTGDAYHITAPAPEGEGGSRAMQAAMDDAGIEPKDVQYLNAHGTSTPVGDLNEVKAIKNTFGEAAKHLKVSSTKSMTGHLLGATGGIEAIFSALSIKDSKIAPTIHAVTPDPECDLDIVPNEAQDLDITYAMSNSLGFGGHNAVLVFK", "assay": "(§1) Inhibition of Staphylococcus aureus […] assessed as [2-14C]-malonyl CoA incorporation after 90 mins by cell free-based scintillation counting"}, "Staphylococcus aureus [2]": {"tested_on": "Staphylococcus aureus", "assay": "Antibacterial activity against Staphylococcus aureus at 64 ug/ml after 20 hrs", "type": "functional, organism-based"}, "Enterococcus faecalis": {"tested_on": "Enterococcus faecalis", "assay": "Antibacterial activity against Enterococcus faecalis at 64 ug/ml after 20 hrs", "type": "functional, organism-based"}, "Enterococcus faecium": {"tested_on": "Enterococcus faecium", "assay": "Antibacterial activity against Enterococcus faecium at 64 ug/ml after 20 hrs", "type": "functional, organism-based"}, "Escherichia coli": {"tested_on": "Escherichia coli", "assay": "Antibacterial activity against Escherichia coli at 64 ug/ml after 20 hrs", "type": "functional, organism-based"}, "Haemophilus influenzae": {"tested_on": "Haemophilus influenzae", "assay": "Antibacterial activity against Haemophilus influenzae at 64 ug/ml after 20 hrs", "type": "functional, organism-based"}, "Staphylococcus aureus [3]": {"tested_on": "Staphylococcus aureus", "assay": "Antibacterial activity against Staphylococcus aureus RN450 expressing S1-1941 plasmid carrying antisense FabF2p RNA assessed as 5 mm differential zone clearance measured as minimum concentration after 18 hrs", "type": "functional"}, "[4]": {"target": "T2, 3-oxoacyl-[acyl-carrier-protein] synthase 2 (Staphylococcus aureus) (UniProt Q5TKS0)", "T2 sequence (whole entry)": "T1 sequence (Q5TKS0 whole entry)", "assay": "as §1"}}, "note": "Calls of active or inactive are those of the source. The rule behind the calls is not given here."}
{"smiles": "C[C@]12O[C@H]3CC1C[C@@]1(C=C(O)C(=O)[C@@](C)(CCC(=O)Nc4c(O)ccc(C(=O)O)c4O)C31)C2O", "note": "(some centres undefined)", "values": [{"measurement": "Activity", "setting": "Streptococcus pneumoniae", "result": "inactive"}, {"measurement": "IC50", "setting": "[1]", "result": 33.8, "unit": "µM"}, {"measurement": "Activity", "setting": "Staphylococcus aureus [2]", "result": "inactive"}, {"measurement": "Activity", "setting": "Enterococcus faecalis", "result": "inactive"}, {"measurement": "Activity", "setting": "Enterococcus faecium", "result": "inactive"}, {"measurement": "Activity", "setting": "Escherichia coli", "result": "inactive"}, {"measurement": "Activity", "setting": "Haemophilus influenzae", "result": "inactive"}, {"measurement": "Activity", "setting": "Staphylococcus aureus [3]", "result": "<20", "unit": "µg/mL"}]}
{"smiles": "COC(=O)c1ccc(O)c(NC(=O)CC[C@]2(C)C(=O)C=CC34CC5CC(OC5(CO)C3)C42)c1O", "note": "(some centres undefined) [PLATENSIMYCIN A4 METHYL ESTER]", "values": [{"measurement": "Activity", "setting": "Streptococcus pneumoniae", "result": "inactive"}, {"measurement": "inhibition", "setting": "[4]", "result": "inactive"}, {"measurement": "Activity", "setting": "Staphylococcus aureus [2]", "result": "inactive"}, {"measurement": "Activity", "setting": "Enterococcus faecalis", "result": "inactive"}, {"measurement": "Activity", "setting": "Enterococcus faecium", "result": "inactive"}, {"measurement": "Activity", "setting": "Escherichia coli", "result": "inactive"}, {"measurement": "Activity", "setting": "Haemophilus influenzae", "result": "inactive"}, {"measurement": "Activity", "setting": "Staphylococcus aureus [3]", "result": 100, "unit": "µg/mL"}]}
{"smiles": "C[C@]12O[C@H]3CC1C[C@@]1(C=CC(=O)[C@@](C)(CCC(=O)O)C31)[C@H]2O", "note": "(some centres undefined)", "values": [{"measurement": "Activity", "setting": "Streptococcus pneumoniae", "result": "inactive"}, {"measurement": "inhibition", "setting": "[4]", "result": "inactive"}, {"measurement": "Activity", "setting": "Staphylococcus aureus [2]", "result": "inactive"}, {"measurement": "Activity", "setting": "Enterococcus faecalis", "result": "inactive"}, {"measurement": "Activity", "setting": "Enterococcus faecium", "result": "inactive"}, {"measurement": "Activity", "setting": "Escherichia coli", "result": "inactive"}, {"measurement": "Activity", "setting": "Haemophilus influenzae", "result": "inactive"}]}
{"smiles": "C=C1CC23C=CC(=O)[C@@](C)(CCC(=O)OCC(O)CO)C2CC1CC3", "note": "(some centres undefined)", "values": [{"measurement": "Activity", "setting": "Streptococcus pneumoniae", "result": "inactive"}, {"measurement": "inhibition", "setting": "[4]", "result": "inactive"}, {"measurement": "Activity", "setting": "Staphylococcus aureus [2]", "result": "inactive"}, {"measurement": "Activity", "setting": "Enterococcus faecalis", "result": "inactive"}, {"measurement": "Activity", "setting": "Enterococcus faecium", "result": "inactive"}, {"measurement": "Activity", "setting": "Escherichia coli", "result": "inactive"}, {"measurement": "Activity", "setting": "Haemophilus influenzae", "result": "inactive"}]}
{"smiles": "COC(=O)c1ccc(O)c(NC(=O)CC[C@]2(C)C(=O)C=CC34CCC(CC32)[C@@](O)(CO)C4)c1O", "note": "(some centres undefined)", "values": [{"measurement": "Activity", "setting": "Streptococcus pneumoniae", "result": "inactive"}, {"measurement": "inhibition", "setting": "[4]", "result": "inactive"}, {"measurement": "Activity", "setting": "Staphylococcus aureus [2]", "result": "inactive"}, {"measurement": "Activity", "setting": "Enterococcus faecalis", "result": "inactive"}, {"measurement": "Activity", "setting": "Enterococcus faecium", "result": "inactive"}, {"measurement": "Activity", "setting": "Escherichia coli", "result": "inactive"}, {"measurement": "Activity", "setting": "Haemophilus influenzae", "result": "inactive"}]}
{"smiles": "C=C1CC23C=CC(=O)[C@@](C)(CCC(=O)Nc4c(O)ccc(C(=O)O)c4O)C2CC1[C@@H](O)C3", "note": "(some centres undefined)", "values": [{"measurement": "Activity", "setting": "Streptococcus pneumoniae", "result": "inactive"}, {"measurement": "inhibition", "setting": "[4]", "result": "inactive"}, {"measurement": "Activity", "setting": "Staphylococcus aureus [2]", "result": "inactive"}, {"measurement": "Activity", "setting": "Enterococcus faecalis", "result": "inactive"}, {"measurement": "Activity", "setting": "Enterococcus faecium", "result": "inactive"}, {"measurement": "Activity", "setting": "Escherichia coli", "result": "inactive"}, {"measurement": "Activity", "setting": "Haemophilus influenzae", "result": "inactive"}]}
{"smiles": "COC(=O)CC[C@]1(C)C(=O)C=C[C@]23CC4C[C@H](O[C@]4(C)C2)C31", "note": "(some centres undefined)", "values": [{"measurement": "Activity", "setting": "Streptococcus pneumoniae", "result": "inactive"}, {"measurement": "inhibition", "setting": "[4]", "result": "inactive"}, {"measurement": "Activity", "setting": "Staphylococcus aureus [2]", "result": "inactive"}, {"measurement": "Activity", "setting": "Enterococcus faecalis", "result": "inactive"}, {"measurement": "Activity", "setting": "Enterococcus faecium", "result": "inactive"}, {"measurement": "Activity", "setting": "Escherichia coli", "result": "inactive"}, {"measurement": "Activity", "setting": "Haemophilus influenzae", "result": "inactive"}]}
{"smiles": "C[C@@]12CC34C=CC(=O)[C@@](C)(CCC(=O)Nc5c(O)ccc(C(=O)O)c5O)C3[C@H](CC1[C@H]4O)O2", "note": "(some centres undefined)", "values": [{"measurement": "Activity", "setting": "Streptococcus pneumoniae", "result": "inactive"}, {"measurement": "inhibition", "setting": "[4]", "result": "inactive"}, {"measurement": "Activity", "setting": "Staphylococcus aureus [2]", "result": "inactive"}, {"measurement": "Activity", "setting": "Enterococcus faecalis", "result": "inactive"}, {"measurement": "Activity", "setting": "Enterococcus faecium", "result": "inactive"}, {"measurement": "Activity", "setting": "Escherichia coli", "result": "inactive"}, {"measurement": "Activity", "setting": "Haemophilus influenzae", "result": "inactive"}]}
{"smiles": "CC12CC34C=CC(=O)[C@@](C)(CCC(=O)Nc5c(O)ccc(C(=O)O)c5O)C3C(C[C@]1(O)C4)O2", "note": "(some centres undefined)", "values": [{"measurement": "Activity", "setting": "Streptococcus pneumoniae", "result": "inactive"}, {"measurement": "inhibition", "setting": "[4]", "result": "inactive"}, {"measurement": "Activity", "setting": "Staphylococcus aureus [2]", "result": "inactive"}, {"measurement": "Activity", "setting": "Enterococcus faecalis", "result": "inactive"}, {"measurement": "Activity", "setting": "Enterococcus faecium", "result": "inactive"}, {"measurement": "Activity", "setting": "Escherichia coli", "result": "inactive"}, {"measurement": "Activity", "setting": "Haemophilus influenzae", "result": "inactive"}]}
{"smiles": "C=C1C2CCC3(C=CC(=O)[C@@](C)(CCC(=O)Nc4c(O)ccc(C(=O)O)c4O)C3C2)[C@H]1O", "note": "(some centres undefined)", "values": [{"measurement": "Activity", "setting": "Streptococcus pneumoniae", "result": "inactive"}, {"measurement": "inhibition", "setting": "[4]", "result": "inactive"}, {"measurement": "Activity", "setting": "Staphylococcus aureus [2]", "result": "inactive"}, {"measurement": "Activity", "setting": "Enterococcus faecalis", "result": "inactive"}, {"measurement": "Activity", "setting": "Enterococcus faecium", "result": "inactive"}, {"measurement": "Activity", "setting": "Escherichia coli", "result": "inactive"}, {"measurement": "Activity", "setting": "Haemophilus influenzae", "result": "inactive"}]}
{"smiles": "C=C1C[C@@]23C=CC(=O)[C@@](C)(CCC(=O)OC)C2C[C@@H]1C[C@H]3O", "note": "(some centres undefined)", "values": [{"measurement": "Activity", "setting": "Streptococcus pneumoniae", "result": "inactive"}, {"measurement": "inhibition", "setting": "[4]", "result": "inactive"}, {"measurement": "Activity", "setting": "Staphylococcus aureus [2]", "result": "inactive"}, {"measurement": "Activity", "setting": "Enterococcus faecalis", "result": "inactive"}, {"measurement": "Activity", "setting": "Enterococcus faecium", "result": "inactive"}, {"measurement": "Activity", "setting": "Escherichia coli", "result": "inactive"}, {"measurement": "Activity", "setting": "Haemophilus influenzae", "result": "inactive"}]}
